Assay results from a melting point compilation (Tetko et al.; mined from patent text by program, amines drawn as free bases though some values may be those of a salt).

melting point	Compound
< 220 °C	COc1ccc(OC)c2c1C=C(C(=O)O)CC2
188 °C	CNC(=S)N(CCN1CCC(Nc2nc3ccccc3n2Cc2ccc(F)cc2)CC1)c1nccs1
283 °C	Cn1ccn(-c2ccc(N3CCN(c4ccc(O)cc4)CC3)cc2)c1=O
250 to 252 °C	CC(=O)OC[C@H]1NC(=O)[C@@H](Cc2cn(C)c3ccccc23)NC1=O
66 to 67 °C	CCOC(=O)CC(=O)c1ccnc(F)c1
188 to 189 °C	Cc1c(-c2ccc(C#N)cc2)c(C#N)c(C2CC2)n1Cc1cnc(Cl)c(COC(=O)CCC(=O)O)c1
165 to 167 °C	CCCOc1cc2ccccc2c2c(=O)c(-c3ccoc3)cn(C)c12
191 °C	Cc1c(C(=O)Nc2ccc(N3CCN(CCO)CC3)c(C#N)c2)cnn1-c1ccc(F)c(Cl)c1
184 °C	Cc1ccc(S(=O)(=O)OCC2CCN(c3nc4ccccc4s3)CC2)cc1
129 to 136 °C	O=[N+]([O-])c1cccnc1N1CCc2ccccc2CC1
136 °C	CN(C)C1=CC(=O)c2ccccc2OC1
75 to 78 °C	CC(C)(C)OC(=O)NC1CC(=O)C1
138 °C	COc1cnc(CS(C)(=O)=O)nc1OC(=O)NN1CCOCC1
154 to 156 °C	Cc1nc2cnccc2n1-c1ccc(CO)cc1
114 to 116 °C	CCCC(=O)c1cnc2c(C3CO3)cccc2c1Nc1ccccc1C (centres undefined)
152 to 155 °C	COC(=O)c1c(Cl)cc(Cl)cc1NC(=O)CSc1ccc(NC(=S)NCc2ccccc2)cc1
64 to 65 °C	CC(C)(C)C(=O)OCCCCCCOc1ccc(Nc2ccccc2)cc1
244 to 245 °C	O=C(Nc1ccc(Cl)c(C(=O)Nc2ccccc2)c1O)Nc1cccc(Cl)c1Cl
83 to 89 °C	CNC(=O)c1ccccc1Nc1nc(Nc2cc3c(cc2OC)CCN(CC(=O)N(C)C)CC3)ncc1Cl
150 °C	O=S1(=O)c2cccc3cccc(c23)N1CCN1CCC(Cc2cnc3ccccc3c2)CC1
> 350 °C	O=C1Oc2ccc(Cl)cc2C2=c3ccccc3=NCC12 (centres undefined)
148 to 154 °C	CCOC(=O)C(=O)CC(=O)C=Cc1ccc([N+](=O)[O-])cc1
86.5 to 88.5 °C	CC1(C)COC(C=Cc2ccc([N+](=O)[O-])cc2)OC1

melting point	Compound
162 to 164 °C	CCOC(=O)C1=C(CN2C(=O)c3ccccc3C2=O)NC(CN2C(=O)c3ccccc3C2=O)=C(C(=O)OCC)C1c1ccccc1Cl
121 to 122 °C	Cc1cc2c(-c3cccc(C(F)(F)F)c3)nc(C#N)nc2s1
220 to 222 °C	Nc1ncc(-c2cccc(-n3cnc4cc(-c5ccco5)ccc43)c2)cn1
109 to 110 °C	CC(C)N1CCC(N2CCN(CCCN3CCOCC3)C2=C(C#N)C#N)CC1
138 to 142 °C	CCOCC(=O)Nc1c(NCCNC(=O)OC(C)(C)C)c(C)c(C)n2nnnc12
75 to 76 °C	CC(C)C(C#N)c1ccc(OCc2ccccc2)c(OCc2ccccc2)c1 (centres undefined)
147 to 149 °C	COC(=O)CC(=O)CC(O)/C=C/c1c(-c2ccc(F)cc2)n(C(C)C)c(=O)c2ccccc12 (centres undefined)
126 to 128 °C	CC(CCc1ccc(Cl)cc1)(Cn1ccnc1)Sc1cccc(Cl)c1Cl (centres undefined)
200 to 201 °C	c1ccc(NCc2nccc(-c3ccc(-c4ccc(N(c5ccccc5)c5ccccc5)cc4)cc3)n2)cc1
131 to 132 °C	O=C(O)COC(=O)c1ccccc1O
78 °C	CC(O)C1(C)COC(c2ccc(F)cc2)OC1 (centres undefined)
218 °C	COC(=O)Nc1nc2cc(C(C3CC3)n3ccnc3)ccc2[nH]1 (centres undefined)
145 to 150 °C	O=C(Cl)N1c2ccccc2C=Cc2ccccc21
203 to 204 °C	CS(=O)(=O)c1ccc(-c2cnn(-c3ccc(F)cc3)c(=O)c2C#Cc2ccccc2)cc1
198 °C	N#Cc1c(N2CCCC2)nsc1N
138 to 140 °C	Nc1ncc(Br)nc1-c1ccccc1Cl
95 to 96 °C	COc1c(C)c(C=O)c(OC)c2ccccc12
153 °C	CNc1snc(C)c1[N+](=O)[O-]
251 °C	Cc1oc(-c2ccc(S(C)(=O)=O)cc2)c(Oc2ccc(Cl)cc2)c(=O)c1Br
71 °C	CN(C)C/C=C\c1ncccc1OCCO
59 to 60 °C	CCC(=O)C(=Cc1ccc(C#N)cc1)C(=O)CC
70 °C	CCOc1ccc(-n2cnnc2C(F)(F)F)cc1
149 to 150 °C	Cc1c(-c2ccc(OCc3ccccc3)cc2)[nH]c2ccc(OCc3ccccc3)cc12

melting point	Compound
185 to 187 °C	CCCOc1ncc(NC(C)C(=O)OC)cc1-c1nc2c(CCC)nn(C)c2c(=O)[nH]1 (centres undefined)
170 to 188 °C	COc1ccc(Cn2c(=O)c(=NNc3ccccc3)c(=O)n(CC34CC5CC(CC(C5)C3)C4)c3ccccc32)cc1
210 to 212 °C	CC1=C(c2ccc(Cl)cc2)n2ncc(C(N)=O)c2NC1
216 to 217 °C	CN1C(=O)CCC2(C)C3CCC4(C)C(OC(=O)NCc5ccccc5)CCC4C3CCC12 (centres undefined)
205 to 206 °C	CC(N)C(=O)N(CCC(=O)O)C1Cc2ccccc2C1 (centres undefined)
156 to 158 °C	CCOC(=O)c1ccc(NC(=O)c2ccc(OCCCCc3ccccc3)cc2)c(O)c1
93 °C	O=S(=O)(NN1CCCCC1)c1ccc(S)cc1
88 to 89 °C	CCOC(=O)C(=Cc1ccccc1)S(N)(=O)=O
224 to 227 °C	O=C(CC(=O)c1snc(Cl)c1Cl)c1ccc(O)cc1
149 to 152 °C	CN1CC(CCN2CCOCC2)N(C)c2nc3ccccc3n2C1=O (centres undefined)
56 to 57 °C	CCOC(=O)C(Cc1cc(C)cc(OC(F)(F)C(F)F)c1)C(=O)c1ccc(F)cc1 (centres undefined)
190 °C	CC(C)(C)OC(=O)N1C[C@H]2[C@@H](C1)C(c1ccccc1)(c1ccccc1)CC[C@@H]2O
> 250 °C	COc1cc2c(cc1-c1ccccc1F)NC(=O)CC(c1cc(C#N)ccc1F)=N2
217 to 218 °C	CCn1cc(C(=O)c2ccccc2)c(=O)c2cn(C)nc21
203 to 204 °C	COC(=O)C1=Cc2cc(-c3ccc(C)cc3)ccc2S(=O)(=O)CC1
84 to 85 °C	CC1(CN(c2ccc(Cl)cc2)S(C)(=O)=O)OCCO1
176 °C	CC(C)CCC(=O)C(C(=O)O)C1c2ccccc2C(=O)N1c1ccc2ccc(Cl)nc2n1 (centres undefined)
272 °C	Cc1cccc2nc(NC(=O)c3ccc(C4(C(=O)O)CCC4)cc3)cn12
151 to 154 °C	CC(=O)OC1CCC2(C)C(=CC(=O)C3C2CCC2(C)C(C(C)CCCC(C)C)CCC32)C1 (centres undefined)
212 to 213 °C	CC(=O)Nc1cc2c(cc1[N+](=O)[O-])N(NC(C)=O)CC2
173 to 175 °C	O=C(Nc1cccc(Cl)c1)N[C@H]1C[C@H](C(=O)O)Nc2cc(Cl)cc(Cl)c21 (relative stereo)
245 to 247 °C	c1ccc(-c2nn3c(N4CCCC4)nnc3c3ccccc23)cc1
348 to 353 °C	O=C(Oc1n[nH]c(=O)c2nc3cc(Cl)ccc3c(O)c12)c1ccccc1

melting point	Compound
106 to 107 °C	Clc1cc(Cc2c(Cl)cccc2Cl)nc(Cl)n1
192 to 195 °C	O=C(CC1CCCCC1)Nc1c(Cl)ccc2nc(CCCCc3nnn[nH]3)ccc12
62 to 64 °C	C#CCOc1ncc(Cl)cc1OC
175 to 177 °C	O=c1c(C(O)c2ccc(Cl)cc2)c(Cl)nc2n1CCS2 (centres undefined)
148 to 150 °C	CNC(=O)CCCCSc1nccc(NC(N)=NCC(F)(F)F)n1
> 250 °C	Nc1nc2ccccc2c2c1nc(O)n2Cc1cccnc1
184 to 186 °C	N#CCCc1cccc(-c2ccc3cnc(Nc4ccc5c(c4)CCC(N4CCOCC4)CC5)nn23)c1 (centres undefined)
206 to 207 °C	Cn1c(=O)c(-c2ccccc2Cl)cc2cnc(NC3CCS(=O)(=O)CC3)nc21
130 to 131 °C	CC1(C)Cc2sccc2C=[N+]1[O-]
230 to 240 °C	COc1ccc(/C(C)=C/c2ccc(C(=O)OCc3ccccc3)cc2)cc1C12CC3CC(CC(C3)C1)C2
129 to 132 °C	CCCOc1ccccc1-c1nc(C=NNC(=O)OCC)c[nH]1
250 to 251 °C	CC(C)(C)c1ccc(C(=O)Nc2cn3cc(Cl)ccc3n2)cc1
179 to 181 °C	CS(=O)(=O)c1ccc(-c2cnn(CC(F)(F)F)c(=O)c2Oc2ccc(C#N)cc2)cc1
87 to 89 °C	CCCCCNC(=O)N(C)c1cccc(-c2ccc(C=C(C)C(=O)O)cc2OCCCC)c1
199 to 201 °C	CCCOc1nc(Nc2ccc(F)c(Cl)c2)nc(NC2CCN(S(C)(=O)=O)CC2)n1
134 to 142 °C	COc1cc(OCCN2CCN(C)CC2)ccc1/C=C/c1cc(/C=C/c2ccc3cc[nH]c3c2)n[nH]1
248 °C	O=C(c1ccc(F)cc1)C1CCN(CCn2c(=O)[nH]c3cc(F)ccc3c2=O)CC1
135 to 136 °C	COC(=O)C=Cc1ccc(OC)c(OCc2nc(-c3ccccc3)oc2C)c1
110 to 113 °C	CSc1nccn1NCc1cc(C(C)(C)C)c(O)c(C(C)(C)C)c1
109 to 112 °C	O=C(O)C(=O)N1CCC(Cc2ccccc2)CC1
> 300 °C	COc1cccc2nc3[nH]c(=O)[nH]c3cc12
96 to 98 °C	CCCCC#Cc1ccc(-c2cc(C(F)(F)F)nn2-c2ccc(S(C)(=O)=O)cc2)cc1
203 to 205 °C	O=S1(=O)NCN(C2CC2)c2cc(Br)cc(Br)c21

Compound	melting point
Cc1c(N2C(=O)C[C@@](O)(C3CC3)[C@@H]2C)ccc(C#N)c1Cl	231 to 236 °C
CN(C)CC(=O)N(C)c1cccc(-c2ccnc3c(C(=O)c4ccccc4)cnn23)c1	166 to 168 °C
CN(C)C1(c2ccccc2)CCC(CNC(=O)N2CCC(c3c[nH]c4ccc(F)cc34)CC2)CC1 (centres undefined)	95 to 98 °C
Cc1nc(C(=O)NCCN(C)C)c2n1-c1ccc(Cl)cc1C(c1ccccc1F)=NC2	209 to 211 °C
CO[C@]12C[C@@H](CN3CCC(O)(c4ccc(Cl)cc4)CC3)CN(C)[C@@H]1Cc1c[nH]c3cccc2c13	144 to 148 °C
CC1(C)NC(C[PH](=O)O)C(C)(C)S1 (centres undefined)	193 to 194 °C
CN(C)CC(=O)Nc1cccc(NC(=O)Nc2ccc(N(CCCl)CCCl)cc2)c1	62 to 64 °C
